Reference: US20080207502A1, “Anti-Angiogenic Peptides and Methods of Use Thereof” (SOPHERION THERAPEUTICS, INC., priority 2004, published 2008)
Values belong to the sequence of their own block, whether it stands above or below them.

Experiments:
[1] = Heparin binding activity by liquid chromatography on Hi Trap Heparin HP column (NaCl elution); settings: step gradient 500-1000 mM NaCl in 10 mM NaH2PO4 pH 7
Source text: Liquid chromatography was used to determine the relative levels of heparin binding activity of the individual heparin binding domains and of the anti-angiogenic miniproteins that contains them. In this assay, the strength of the heparin binding activity is proportional to the amount of NaCl that is required to elute the peptide bound to the heparin column. Peptides with low binding activity are eluted with lower NaCl concentration, whereas higher concentrations of NaCl are required for peptides with higher binding activity.
Hi Trap Heparin HP column (1 ml, Amersham Biosciences) was equilibrated with 10 column volumes (CV) of equilibration (EQ) buffer=10 mM NaH2PO4pH 7. All buffers were loaded onto columns via syringes. 500 μl fractions are collected (flow rate=1 ml/minute). 500 μg of peptide (1 mg/ml, resuspended in EQ buffer) was added to each column and the flow through was collected for analysis. The columns were then washed with 3 CV of EQ buffer. Peptides are then eluted with a step gradient of 500, 625, 750, 875 mM NaCl in EQ buffer, 2 CV per each step. A final step of 3 CV of 1000 mM NaCl in EQ buffer was collected in 500 μl fractions. The A210 nm was measured using EQ and elution buffers as blanks.

[2] = system: Human Umbilical Vein Endothelial Cells; test: bFGF-mediated survival/proliferation of human umbilical vein endothelial cells (WST1); format: cell-based; settings: for potency in blocking bFGF stimulation: compared with ST100,068, FIG. 6; for inhibition of bFGF mediated survival: comparison of several peptides, FIG. 10
Protocol: (§1) The anti-angiogenic activities of the peptides were tested by measuring the level of inhibition of VEGF and bFGF mediated survival/proliferation of Bovine Retinal Endothelial Cells (BRE), Human Dermal Microvasculature Endothelial Cells, and Human Umbilical Vein Endothelial Cells, all of which are standard cell lines used to test anti-angiogenic compounds.
Human umbilical cord endothelial (HUVEC) cells were maintained in Cambrex EGM-2MV media. On day one, cells were starved overnight in 1% FBS in M200 media (Cascade Biologicals). The morning after, the media were replaced with serum-free media (control) or media containing 25 ng/ml of human VEGF165 and the various peptides to final concentrations as described.
(§2) In all cases, after 72 hours incubation, the amount of live cells in each well was measured with the WST1 assay (Roche).

B16 melanoma tumor = test: Subcutaneous B16 melanoma tumor model in vivo; design: species or system mouse; settings: vs untreated controls
Protocol: Because of the importance of the angiogenic process for tumorigenesis, miniproteins as described herein, were hypothesized to show good anti-tumor activity. The peptides of the invention were tested in an in vivo model of anti-tumor activity. This model compares the growth of sub cutaneous B16 melanoma tumor in vivo either untreated or treated with various amount of miniproteins described in this application. This model is widely accepted in the art as a model to test the anti-tumor activity of compounds that inhibit tumor growth because they have anti-angiogenic activity.
Male C57BL/6 mice were obtained with a mean body weight of 20±2 g. Mouse B16-F1 melanoma cells were implanted subcutaneously (5×10^5 cell per animal). Peptides (formulated in water) were administered ip daily at the amount indicated starting the day after cells injection. In general, tumors became palpable around 9 days after injection of cells. Tumor were then measured every 2 days.

[3] = system: Bovine Retinal Endothelial Cells (BRE); test: VEGF-mediated survival/proliferation of BRE cells (WST1); format: cell-based
Protocol: as §1
Bovine retinal endothelial (BRE) cells were maintained in Cambrex EG2 media. For non-adherent cell assays, on day one cells were starved for either 6 hours or overnight, then trypsinized and plated in 96-well plates in 100 μl of Optimem plus 1% fetal bovine serum (FBS). One hundred μl of Optimem plus 1% FBS was added to the wells containing, where appropriate, VEGF to a final concentration of 25 ng/ml, and the various peptides to final concentrations as described. For adherent cells, cells were plated in 96-well plates in complete media, allowed to adhere overnight, washed in starvation media (Optimem plus 1% FBS) and then starved during the day. At the end of the day, 100 μl of Optimem plus 1% FBS was added to the wells containing, where appropriate, VEGF to a final concentration of 25 ng/ml and the various peptides to final concentrations as described.
as §2

[4] = system: binding of radiolabeled VEGF to endothelial cells; test: Inhibition of binding of radiolabeled VEGF to endothelial cells; settings: concentration of 30 μM; for inhibition of VEGF binding: FIG. 7; for VEGF binding inhibition: legend of FIG. 7
Source text: The activity of the peptides SEQ ID NO.: 1 and SEQ ID NO.: 2 in blocking the binding of radiolabeled VEGF to endothelial cells is shown in FIG. 7.

[5] = system: mouse leukemia L1210 cells; test: Tumor cell proliferation (WST-1), L1210; format: cell-based; settings: FIG. 11
Protocol: Peptides to be tested were prepared at a stock concentration of 10 mM in sterile phosphate buffered saline. Cancer cell lines obtained from the American Type Culture Collection (MG-63, HT1080, A498, BxPC3, 786-0, PC-3, B16F1, B16F10, P388D1, Jurkat, MOLT4, THP-1, U-937, L1210, RPMI 8226, NCI H929, U266B1, K562) were cultured under appropriate conditions as described in the literature. Cell culture media and reagents were obtained from ATCC (Manassas, Va.), Invitrogen (Carlsbad, Calif.) or Mediatech (Herndon, Va.). Exponentially growing cultures were used for cell proliferation assays. Adherent cells were plated at a concentration of 100000 cells per milliter in growth media overnight (18-24 h) and treated the next day in a low serum media (growth media with 1% FBS for MG-63, HT1080, A498, BxPC3, PC-3, B16F1, B16F10. 786-0 cells were treated in media with 5% FBS). Suspension cell lines (P388D1, Jurkat, MOLT4, THP-1, U-937, L1210, RPMI 8226, NCI H929, U266B1, and K562) were diluted to a concentration of 100,000 cells per ml and treated on the same day with peptides. Peptides were diluted in treatment media and cells were treated for 48 or 72 hours depending on the cell line. Each dose was tested in triplicate for each experiment, and experiments were repeated for a minimum of three discrete times. After incubation, the relative number of cells was determined using WST-1 (Roche Applied Science). A 9.5 μl aliquot of WST-1 was added to each well. The plate was immediately read at 440 nm using a Bio-Tek PowerWave XS microplate reader, incubated for 2-3 hours at 37° C. and then read again. Cell proliferation was determined as the percent of the control cell proliferation. The absorbance of each well at time 0 was subtracted from the value of the final reading. Afterwards the blank values were averaged and subtracted from each test and control value. Finally, each test absorbance was divided by the average of the control absorbances and multiplied by 100 to obtain the percent of control. […]

L1210 murine leukemia = L1210 murine leukemia intravenous model in vivo; design: species or system mouse; settings: dosed IP, DBA/2 mice, FIG. 15a
Protocol: Antitumor activity of test peptides, administered intraperitoneally (IP), were evaluated against L1210 murine leukemia cells implanted intravenously (IV) in DBA/2 mice.
Studies generally consisted of randomly-assigned groups of 8 mice per group, which were inoculated IV with 1×10^5 cells per mouse from an in vivo leukemia cell line. In addition to groups tested with test peptides, studies usually included a vehicle-treated control group and a positive control group treated with an agent known to be active in the L1210 leukemia model. Starting one day after tumor inoculation (inoculation day defined as Day 0), mice were treated IP with either vehicle or test peptides in various schedules. Generally this consisted of treatment every other day for approximately 1 week (e.g., Days 1, 3, 5 and 7). A positive agent (e.g., cyclophosphamide) was usually given as a single IP injection on Day 1. All dosing solutions were prepared on each day of treatment. Survival was monitored daily and body weights were measured twice weekly. Anti-tumor activity was assessed by the increase in lifespan of the treated groups in comparison to the vehicle-treated control group. Studies with the L1210 leukemia model were limited to 30 days.

[6] = Biological activity of D-amino acid versions of ST100,038 (assay not specified); settings: ST100,045 tested against ST100,059 and a control
Protocol: D-amino acid peptides can be made by generating a D-amino acid peptide with the same sequence as a L-amino acid peptide or by preparing a retro inverso form of a peptide. ST100,045 (SEQ ID NO.: 31) has the same sequence as ST100,038 (SEQ ID NO.: 29) was tested against ST100,059 (SEQ ID NO.: 30) which is the retro inverso version of ST100,038 and a control.

[NaCl] for elution [1]: 1000 mM
Sequence: RRGRAAKKKRRGRAAKKKPSQSSHPPLSTA (listed as Homo sapiens) [ST100,072]
potency in blocking bFGF stimulation [2]: more potent in blocking bFGF stimulation

[NaCl] for elution [1]: 1100 mM
Sequence: RKRAALRARKRAARARKRAARR (RKRAARARKRAARARKRAARR; listed as Homo sapiens) [ST100,083]

Sequence: RRGRAARRGRAAKKKPSQSSHPPLSTA (listed as Homo sapiens) [ST100,068]
inhibition of tumor growth (B16 melanoma tumor; 20 mg/kg and 40 mg/kg daily IP, FIG. 13): able to inhibit tumor growth
potency in blocking VEGF stimulation ([3]; compared with ST100,059, FIG. 5): more potent in blocking VEGF stimulation
inhibition of VEGF stimulation ([3]; increasing doses, FIG. 5): inhibited with increasing doses

Sequence: PYAGRGDSVVYGLGGGPGAARGRRAARGRR [ST100,033]
inhibition of VEGF binding [4]: ~100%
VEGF binding inhibition [4]: completely abolished VEGF binding

Sequence: ATSLPPHSSQSP (listed as Homo sapiens) [ST100,038]
Concentrations that completely abolished the VEGF-induced increase in WST-1 value ([3]; VEGF 25 ng/ml, 72 hours, FIG. 4): above 40 μM

[NaCl] for elution [1]: 1000 mM
Sequence: RAAKKRKRAAKKRARAAKKRLGYVVSDGRGDYP (RAAKKRARAAKKRARAAKKRLGYVVSDGRGDYP; listed as Homo sapiens) [ST100,079]

Sequence: RRGRAARRGRAAKKK (listed as Homo sapiens) [ST100,078]
blocked cell proliferation or induced cell death [5]: Neither
inhibition of bFGF mediated survival [2]: not as potent

[NaCl] for elution [1]: 1000 mM
Sequence: RRGRAARRGRAARRGRAAKKKPSQSSHPPLSTA (listed as Homo sapiens) [ST100,073]
potency in blocking bFGF stimulation [2]: more potent in blocking bFGF stimulation
inhibition of bFGF mediated survival [2]: the most active in inhibiting bFGF stimulation
inhibition of tumor growth (B16 melanoma tumor; 20 mg/kg daily IP, FIG. 14): able to inhibit tumor growth

[NaCl] for elution [1]: 1000 mM
Sequence: RKKAARARKKAARARKKAARRLGYVVSDGRGDYP (listed as Homo sapiens) [ST100,081]

Sequence: RRGRAAKKKRRGRAAKKKRLGYVVSDGRGDYP [ST100,074]
[NaCl] for elution [1]: 1000 mM
inhibition of bFGF mediated survival [2]: the most active in inhibiting bFGF stimulation
mice (cured mice) survived longer than 30 days (L1210 murine leukemia): Sixty to eighty percent
survival (L1210 murine leukemia): statistically significant increases in survival

Sequence: ATSLPPHSSQSP (listed as Homo sapiens) [ST100,045]
biologically active [6]: Only the retro inverso form of ST100,038, (ST100,059; SEQ ID NO.: 30) was found to be biologically active

Sequence: RLGYVVSDGRGDYPKKKRRGRAARRGRAA [ST100,065]
[NaCl] for elution [1]: 750 mM
mice (cured mice) survived longer than 30 days (L1210 murine leukemia): Sixty to eighty percent
survival (L1210 murine leukemia): statistically significant increases in survival

Sequence: YDGRGDSVVYGLKKKAARGRRAARGRR [ST100,032]
inhibition of VEGF binding [4]: ~100%
VEGF binding inhibition [4]: completely abolished VEGF binding

Sequence: RLGYVVSDGRGDYP (listed as Homo sapiens) [ST100,077]
blocked cell proliferation or induced cell death [5]: Neither

[NaCl] for elution [1]: 1000 mM
Sequence: RRGRAAKKKRRGRAAKKK (listed as Homo sapiens) [ST100,082]

Sequence: ATSLPPHSSQSPGGGPPAARGRRAARGRR (listed as Homo sapiens) [ST100,062]
inhibition of tumor growth (B16 melanoma tumor; 20 mg/kg daily IP, FIG. 12): clearly inhibit tumor growth
